Tests used:
[1] = Hypolipid action in rats fed stock diet (serum and liver lipids); format: in vivo, Wistar strain male rats; settings: 100 mg/kg orally twice a day for one week; for Liver lipid: Cholesterol content / Liver lipid: Phospholipid content / Liver lipid: Triglyceride content / Serum lipid: Cholesterol content / Serum lipid: Phospholipid content / Serum lipid: Triglyceride content: fasted 16 hours, mean ± standard; for Liver lipid: Cholesterol % / Liver lipid: Phospholipid % / Liver lipid: Triglyceride % / Serum lipid: Cholesterol % / Serum lipid: Phospholipid % / Serum lipid: Triglyceride %: % of control (control = 100)
Procedure: (§1) Pharmacological study (Hypolipid action)
(§2) A 2% aqueous solution of N-(mercaptoacetyl)-L-histidine and N-(3-mercaptopropionyl)-L-histidine, previously neutralized to pH 7.0 with sodium hydroxide, was administered orally to Wistar strain male rats at a dose of 100 mg/kg twice a day for one week. After the final administration of the test solution, the rats were fasted for 16 hours. Cholesterol, triglyceride and phospholipid levels in serum and liver were determined. The rats were divided into two groups. One group was fed a stock diet, and the other a 2% cholesterol-containing diet.
Group fed with stock diet

[2] = Hypolipid action in rats fed 2% cholesterol-containing diet (serum and liver lipids); format: in vivo, Wistar strain male rats; settings: 100 mg/kg orally twice a day for one week; for Liver lipid: Cholesterol content / Liver lipid: Phospholipid content / Liver lipid: Triglyceride content / Serum lipid: Cholesterol content / Serum lipid: Phospholipid content / Serum lipid: Triglyceride content: fasted 16 hours, mean ± standard; for Liver lipid: Cholesterol % / Liver lipid: Phospholipid % / Liver lipid: Triglyceride % / Serum lipid: Cholesterol % / Serum lipid: Phospholipid % / Serum lipid: Triglyceride %: % of control (control = 100)
Procedure: as §1, §2
Group fed with cholesterol containing diet

[3] = Acute toxicity (LD50, intraperitoneal); settings: rat, in vivo, ip, 5% solution pH 7.0, 7-day observation, Litchfield-Wilcoxon method
Procedure: ddy Strain male rats, 4 weeks of age, weighing 18-20 g were placed in a room of constant temperature and humidity (24°±1° C., 55+5%) and fed freely a pellet diet (CE-2, made by Clea Japan Inc.) and water for one week. Out of them, rats showing normal growth were selected for the experiment.
N-(3-mercaptopropionyl)-L-histidine was added to physiological saline, and was neutralized to pH 7.0 with 4 N sodium hydroxide a 5% solution of this solution was used as the test solution, being administered intraperitoneally to the rats.

| Structure (SMILES) | Liver lipid: Cholesterol content [1] | Liver lipid: Phospholipid content [1] | Liver lipid: Triglyceride content [1] | Serum lipid: Cholesterol content [1] | Serum lipid: Phospholipid content [1] | Serum lipid: Triglyceride content [1] | Liver lipid: Cholesterol % [1] | Liver lipid: Phospholipid % [1] | Liver lipid: Triglyceride % [1] | Serum lipid: Cholesterol % [1] | Serum lipid: Phospholipid % [1] | Serum lipid: Triglyceride % [1] | Liver lipid: Cholesterol content [2] | Liver lipid: Phospholipid content [2] | Liver lipid: Triglyceride content [2] | Serum lipid: Cholesterol content [2] | Serum lipid: Phospholipid content [2] | Serum lipid: Triglyceride content [2] | Liver lipid: Cholesterol % [2] | Liver lipid: Phospholipid % [2] | further results |
| --- | --- | --- | --- | --- | --- | --- | --- | --- | --- | --- | --- | --- | --- | --- | --- | --- | --- | --- | --- | --- | --- |
| O=C(CS)N[C@@H](Cc1c[nH]cn1)C(=O)O [Compound 1, N-(mercaptoacetyl)-L-histidine] | 19.7 ± 0.8 mg/total liver weight | 175.1 ± 7.3 mg/total liver weight | 24.4 ± 2.0 mg/total liver weight | 53.2 ± 1.9 mg/dL | 95.1 ± 3.2 mg/dL | 56.0 ± 5.6 mg/dL | 89.5% | 89.7% | 61.5% | 83.6% | 83.9% | 65.0% | 52.4 ± 3.6 mg/total liver weight | 112.6 ± 5.8 mg/total liver weight | 17.0 ± 1.4 mg/total liver weight | 269.5 ± 4.8 mg/dL | 178.6 ± 9.8 mg/dL | 81.4 ± 10.2 mg/dL | 83.4% | 93.2% | Liver lipid: Triglyceride % [2]: 97.7%; Serum lipid: Cholesterol % [2]: 88.7%; Serum lipid: Phospholipid % [2]: 87.8%; Serum lipid: Triglyceride % [2]: 71.6% |
| O=C(CCS)N[C@@H](Cc1c[nH]cn1)C(=O)O [Compound 2, N-(3-mercaptopropionyl)-L-histidine] | 18.9 ± 0.4 mg/total liver weight | 163.6 ± 1.7 mg/total liver weight | 30.8 ± 4.5 mg/total liver weight | 45.4 ± 0.4 mg/dL | 93.4 ± 4.8 mg/dL | 49.5 ± 5.5 mg/dL | 85.9% | 83.8% | 77.6% | 71.4% | 82.4% | 57.5% | 60.3 ± 4.0 mg/total liver weight | 116.4 ± 4.2 mg/total liver weight | 17.1 ± 1.5 mg/total liver weight | 246.9 ± 27.8 mg/dL | 173.9 ± 7.0 mg/dL | 79.2 ± 4.9 mg/dL | 96.0% | 96.4% | Liver lipid: Triglyceride % [2]: 98.3%; Serum lipid: Cholesterol % [2]: 81.4%; Serum lipid: Phospholipid % [2]: 85.5%; Serum lipid: Triglyceride % [2]: 69.7%; LD50 at 168 h [3]: 4040 mg/kg |
